Laboratory results as given in patent US11407725B2 (The Board of Trustees of the University of Illinois, priority 2018, dated 2022).

Columns and labels:
ALDH isoforms = experiment: BAAA isoform selectivity assay; type: biochemical, human; conditions: 18 μM BAAA, 20 units of each isoform
Experimental: BAAA activation was determined using UV/Vis spectroscopy. A 2 mM stock solution of BAAA was prepared in DMSO and activated with 2M HCL as described in the ALDEFLUOR™ Kit protocol ([…] Technologies Inc.). Immediately before measurement, BAAA was added to the reaction mixture described above to a final concentration of 18 μM. The solution was mixed vigorously, and the reaction proceeded at room temperature. UV/Vis absorbance spectra were taken from 300 to 500 nm every 30 seconds for 15 minutes. The rate of NADH produced per minute was calculated according to the absorbance at 340 nm (ε=[…] cm^−1). All measurements were performed in triplicate and reported as the average±standard deviation. 20 units of enzyme and 18 μM of BAAA were necessary to detect a significant increase in absorbance at 340 nm for the ALDH1A1 isoform.

ALDH1A1 [1] = target: T1, ALDH1A1 (Homo sapiens, UniProt P00352); experiment: ALDH isoform selectivity of red probes: ALDH1A1; type: biochemical; conditions: Table 2
T1 construct: made in house
T1 sequence (P00352 1-501): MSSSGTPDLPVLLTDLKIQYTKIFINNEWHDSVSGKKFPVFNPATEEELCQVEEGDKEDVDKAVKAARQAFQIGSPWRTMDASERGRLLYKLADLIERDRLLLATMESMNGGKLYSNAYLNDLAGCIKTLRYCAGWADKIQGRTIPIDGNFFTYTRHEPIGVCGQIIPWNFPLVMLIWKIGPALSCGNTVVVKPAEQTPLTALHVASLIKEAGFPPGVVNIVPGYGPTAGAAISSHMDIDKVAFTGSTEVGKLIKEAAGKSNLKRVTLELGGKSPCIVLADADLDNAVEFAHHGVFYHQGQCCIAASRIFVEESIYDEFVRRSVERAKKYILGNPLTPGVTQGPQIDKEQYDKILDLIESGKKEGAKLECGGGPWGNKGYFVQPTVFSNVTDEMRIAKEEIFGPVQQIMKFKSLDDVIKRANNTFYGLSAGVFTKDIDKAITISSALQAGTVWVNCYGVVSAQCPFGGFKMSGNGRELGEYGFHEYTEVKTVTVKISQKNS
Experimental: (§1) Each ALDH isoform was added to a 50 mM triethanolamine solution (pH 7.4) containing 2.0 mM NAD^+ and 100 μM substrate at room temperature. Benzaldehyde was the substrate for ALDH3A1. Propanal was the substrate for all other isoforms. ALDH isoform activity was determined by monitoring the rate of NADH production through the increase in absorbance at 340 nm (ε=6220 M^−1cm^−1). For these assays, 1 unit is defined as the amount of enzyme that catalyzes the conversion of […] per minute. For every combination of dye and enzyme, 2 μM dye was preincubated with 2.0 mM NAD^+ in 50 mM triethanolamine solution (pH 7.4). The reaction was initiated by addition of 1 unit of ALDH. Dyes were excited at 590 nm, and fluorescence was measured continuously at 610 nm.

ALDH1A3 = target: T2, ALDH1A3 (Homo sapiens, UniProt P47895); experiment: ALDH isoform selectivity of red probes: ALDH1A3; type: biochemical; conditions: Table 2
T2 construct: made in house
T2 sequence (P47895 1-512): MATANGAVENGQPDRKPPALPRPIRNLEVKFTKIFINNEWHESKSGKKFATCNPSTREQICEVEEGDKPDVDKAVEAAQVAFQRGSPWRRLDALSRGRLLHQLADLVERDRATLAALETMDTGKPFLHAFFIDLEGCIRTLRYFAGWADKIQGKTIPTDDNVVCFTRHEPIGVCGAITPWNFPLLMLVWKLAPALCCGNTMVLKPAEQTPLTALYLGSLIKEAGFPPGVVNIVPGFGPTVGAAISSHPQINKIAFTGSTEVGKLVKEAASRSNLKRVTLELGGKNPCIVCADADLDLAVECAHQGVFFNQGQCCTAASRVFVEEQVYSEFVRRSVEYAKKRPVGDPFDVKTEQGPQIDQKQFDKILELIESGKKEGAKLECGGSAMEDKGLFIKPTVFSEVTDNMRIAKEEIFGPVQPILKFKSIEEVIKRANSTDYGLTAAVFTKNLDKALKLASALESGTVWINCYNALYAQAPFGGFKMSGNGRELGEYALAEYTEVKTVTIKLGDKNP
Experimental: as §1

[2] = Photophysical properties (absorbance, emission, extinction coefficient, quantum yield); type: physicochemical; conditions: Probes 1-8
ALDH1A1 [3] = target: T1, ALDH1A1; experiment: ALDH isoform selectivity of red probes: ALDH1A1; type: biochemical

SMILES | reactivity with ALDH isoforms (ALDH isoforms) | Enzyme Activity 1A1 (ALDH1A1 [1]) | Enzymatic Turn On (ALDH1A1 [1]; ALDH1A1, 2 μM dye) | Enzyme Activity 1A3 (ALDH1A3) | Quantum Yield [2] | enzyme kinetics with ALDH1A1 (ALDH1A1 [3])
Cc1cc(C)n2c1C=C1C=CC(CCC(=O)NCC=O)=[N+]1[B-]2(F)F [BAAA, BODIPY-aminoacetaldehyde] | react with a variety of isoforms | – | – | – | – | –
C[Si]1(C)C2=CC(=O)C=CC2=C(c2ccc(C=O)cc2C(F)(F)F)c2ccc(O)cc21 [Probe 3, 4-(7-Hydroxy-5,5-dimethyl-3-oxo-3,5-dihydrodibenzo[b, e]silin-10-yl)-3-(trifluoromethyl)benzaldehyde] | – | Medium | 2.7 | Low | 0.25 | slow enzyme kinetics
